The results in this text go back to patent US9120756B2, “Substituted phenylureas and phenylamides as vanilloid receptor ligands” (Gruenenthal GmbH, priority 2009, dated 2015).

Format in all cases: cell-based
The target of assay [1] is rat-species vanilloid receptor 1 (VR1/TRPV1) (Rattus norvegicus (Rat), UniProt O35433). Description: FLIPR Ca2+ influx assay on rat dorsal root ganglia cells, capsaicin stimulus (method I). The note with it: for Ki: capsaicin (Cap). Here is the method:
The agonistic or antagonistic effect of the substances to be tested on the rat-species vanilloid receptor 1 (VR1/TRPV1) can be determined using the following assay. In this assay, the influx of Ca^2+ through the receptor channel is quantified with the aid of a Ca^2+-sensitive dye (type Fluo-4, Molecular Probes Europe BV, Leiden, the Netherlands) in a fluorescent imaging plate reader (FLIPR, Molecular Devices, Sunnyvale, USA).
Complete medium: 50 ml HAMS F12 nutrient mixture (Gibco Invitrogen GmbH, Karlsruhe, Germany) with
10% by volume of FCS (foetal calf serum, Gibco Invitrogen GmbH, Karlsruhe, Germany, heat-inactivated);
2 mM L-glutamine (Sigma, Munich, Germany);
1% by weight of AA solution (antibiotic/antimyotic solution, PAA, Pasching, Austria) and 25 ng/ml NGF medium (2.5 S, Gibco Invitrogen GmbH, Karlsruhe, Germany)
Cell culture plate: Poly-D-lysine-coated, black 96-well plates having a clear base (96-well black/clear plate, BD Biosciences, Heidelberg, Germany) are additionally coated with laminin (Gibco Invitrogen GmbH, Karlsruhe, Germany), the laminin being diluted with PBS (Ca—Mg-free PBS, Gibco Invitrogen GmbH, Karlsruhe, Germany) to a concentration of 100 μg/ml. Aliquots having a laminin concentration of 100 μg/ml are removed and stored at −20° C. The aliquots are diluted with PBS in a ratio of 1:10 to 10 μg/ml of laminin and respectively 50 μL of the solution are pipetted into a recess in the cell culture plate. The cell culture plates are incubated for at least two hours at 37° C., the excess solution is removed by suction and the recesses are each washed twice with PBS. The coated cell culture plates are stored with excess PBS which is not removed until just before the feeding of the cells.
The vertebral column is removed from decapitated rats and placed immediately into cold HBSS buffer (Hank's buffered saline solution, Gibco Invitrogen GmbH, Karlsruhe, Germany), i.e. buffer located in an ice bath, mixed with 1% by volume (percent by volume) of an AA solution (antibiotic/antimyotic solution, PAA, Pasching, Austria). The vertebral column is cut longitudinally and removed together with fasciae from the vertebral canal. Subsequently, the dorsal root ganglia (DRG) are removed and again stored in cold HBSS buffer mixed with 1% by volume of an AA solution. The DRG, from which all blood remnants and spinal nerves have been removed, are transferred in each case to 500 μL of cold type 2 collagenase (PAA, Pasching, Austria) and incubated for 35 minutes at 37° C. After the addition of 2.5% by volume of trypsin (PAA, Pasching, Austria), incubation is continued for 10 minutes at 37° C. After complete incubation, the enzyme solution is carefully pipetted off and 500 μL of complete medium are added to each of the remaining DRG. […] The contents of each Falcon tube are respectively filtered through a 70 μm Falcon filter element and centrifuged for 10 minutes at 1,200 rpm and RT. The resulting pellet is respectively taken up in 250 μL of complete medium and the cell count is determined.
The number of cells in the suspension is set to 3×10^5 per ml and 150 μL of this suspension are in each case introduced into a recess in the cell culture plates coated as described hereinbefore. […] Subsequently, the cells are loaded with 2 μM of Fluo-4 and 0.01% by volume of Pluronic F127 (Molecular Probes Europe BV, Leiden, the Netherlands) in HBSS buffer (Hank's buffered saline solution, Gibco Invitrogen GmbH, Karlsruhe, Germany) for 30 min at 37° C., washed 3 times with HBSS buffer and after further incubation for 15 minutes at RT used for Ca^2+ measurement in a FLIPR assay. The Ca^2+-dependent fluorescence is in this case measured before and after the addition of substances (λex=488 nm, λem=540 nm). Quantification is carried out by measuring the highest fluorescence intensity (FC, fluorescence counts) over time.
The FLIPR protocol consists of 2 substance additions.

For assay [2], the target named is T1, hVR1 (Homo sapiens (Human), UniProt Q8NER1). Briefly: FLIPR Ca2+ influx assay on CHO K1 cells transfected with the VR1 gene, capsaicin stimulus (method II). The note with it: for Ki: capsaicin (Cap), read-out: Ki (human being) [nM] Cap; for inhibition at 1 µM: CHO-K1, read-out: Ki (human being) inhibition (as a percentage) @ 1 μM, capsaicin, inhibition determined at 1 μM. The text has this: In the process, the Ca^2+ influx is quantified in the FLIPR assay with the aid of a Ca^2+-sensitive dye (type Fluo-4, Molecular Probes Europe BV, Leiden, the Netherlands) in a fluorescent imaging plate reader (FLIPR, Molecular Devices, Sunnyvale, USA), as described hereinafter.
T1 sequence (Q8NER1 whole entry): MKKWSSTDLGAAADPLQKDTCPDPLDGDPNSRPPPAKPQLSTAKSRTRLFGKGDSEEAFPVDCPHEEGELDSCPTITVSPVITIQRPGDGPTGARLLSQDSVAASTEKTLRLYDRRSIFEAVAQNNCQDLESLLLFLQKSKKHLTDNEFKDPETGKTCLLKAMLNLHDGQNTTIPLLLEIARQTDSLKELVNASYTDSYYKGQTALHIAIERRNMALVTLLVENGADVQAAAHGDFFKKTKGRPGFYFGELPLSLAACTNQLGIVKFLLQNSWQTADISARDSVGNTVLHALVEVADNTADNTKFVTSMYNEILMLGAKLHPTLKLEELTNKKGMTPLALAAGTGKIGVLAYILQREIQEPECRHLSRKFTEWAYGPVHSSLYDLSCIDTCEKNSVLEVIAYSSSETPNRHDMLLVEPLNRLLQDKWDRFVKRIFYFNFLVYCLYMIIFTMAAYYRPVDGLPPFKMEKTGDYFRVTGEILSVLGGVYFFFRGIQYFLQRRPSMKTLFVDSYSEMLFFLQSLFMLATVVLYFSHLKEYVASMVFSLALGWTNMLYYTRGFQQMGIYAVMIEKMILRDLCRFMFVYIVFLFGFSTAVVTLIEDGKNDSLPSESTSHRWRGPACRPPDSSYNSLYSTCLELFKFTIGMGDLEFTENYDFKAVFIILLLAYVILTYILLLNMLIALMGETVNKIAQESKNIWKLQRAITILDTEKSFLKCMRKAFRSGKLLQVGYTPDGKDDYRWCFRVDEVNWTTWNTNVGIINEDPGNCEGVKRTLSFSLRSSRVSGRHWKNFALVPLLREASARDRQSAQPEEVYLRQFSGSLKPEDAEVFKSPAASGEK
The agonistic or antagonistic effect of the substances to be tested on the vanilloid receptor 1 (VR1) can also be determined using the following assay. In this assay, the influx of Ca^2+ through the channel is quantified with the aid of a Ca^2+-sensitive dye (type Fluo-4, Molecular Probes Europe BV, Leiden, the Netherlands) in a fluorescent imaging plate reader (FLIPR, Molecular Devices, Sunnyvale, USA).
Chinese hamster ovary cells (CHO K1 cells, European Collection of Cell Cultures (ECACC) United Kingdom) are stably transfected with the VR1 gene. For functional testing, these cells are plated out on poly-D-lysine-coated black 96-well plates having a clear base (BD Biosciences, Heidelberg, Germany) at a density of 25,000 cells/well. The cells are incubated overnight at 37° C. and 5% CO2 in a culture medium (Ham's F12 nutrient mixture, 10% by volume of FCS (foetal calf serum), 18 μg/ml of L-proline). The next day the cells are incubated with Fluo-4 (Fluo-4 2 μM, 0.01% by volume of Pluronic F127, Molecular Probes in HBSS (Hank's buffered saline solution), Gibco Invitrogen GmbH, Karlsruhe, Germany) for 30 minutes at 37° C. Subsequently, the plates are washed three times with HBSS buffer and after further incubation for 15 minutes at RT used for Ca^2+ measurement in a FLIPR assay. The Ca^2+-dependent fluorescence is measured before and after the addition of the substances to be tested (λex wavelength=488 nm, λem=540 nm). Quantification is carried out by measuring the highest fluorescence intensity (FC, fluorescence counts) over time.
The FLIPR protocol consists of 2 substance additions. First the compounds to be tested (10 μM) are pipetted onto the cells and the Ca^2+ influx is compared with the control (capsaicin 10 μM) (% activation based on the Ca^2+ signal after the addition of 10 μM of capsaicin). After 5 minutes' incubation, 100 nM of capsaicin are applied and the Ca^2+ influx is also determined.
Desensitising agonists and antagonists led to suppression of the Ca^2+ influx.
Starting from the percentage displacement caused by different concentrations of the compounds to be tested of general formula I, IC50 inhibitory concentrations which cause a 50-percent displacement of capsaicin were calculated. Ki values for the test substances were obtained by conversion by means of the Cheng-Prusoff equation (Cheng, Prusoff; Biochem. Pharmacol. 22, 3099-3108, 1973).

Assay [3] deals with T1, hVR1. Description: FLIPR assay hVR1, after pH stimulus. Further details: key to IC50 (human being) hVR1 pH: result in words (NE / AG): AG=agonist; pAG=partial agonist; NE=no effect. The note with it: for inhibition at 10 µM: read-out: IC50 (human being) hVR1 pH: inhibition (as a percentage) @ 10 μM, inhibition determined at 10 μM. Here is the method:
In this assay, the influx of Ca^2+ through the channel is quantified with the aid of a Ca^2+-sensitive dye (type Fluo-4, Molecular Probes Europe BV, Leiden, the Netherlands) in a fluorescent imaging plate reader (FLIPR, Molecular Devices, Sunnyvale, USA). Chinese hamster ovary cells (CHO K1 cells, European Collection of Cell Cultures (ECACC) United Kingdom) are stably transfected with the VR1 gene. For functional testing, these cells are plated out on poly-D-lysine-coated black 96-well plates having a clear base (BD Biosciences, Heidelberg, Germany) at a density of 25,000 cells/well. […] Subsequently, the plates are washed three times with HBSS buffer and after further incubation for 15 minutes at RT used for Ca^2+ measurement in a FLIPR assay. […] Quantification is carried out by measuring the highest fluorescence intensity (FC, fluorescence counts) over time. The FLIPR protocol consists of 2 substance additions. […] Desensitising agonists and antagonists led to suppression of the Ca^2+ influx. […] Ki values for the test substances were obtained by conversion by means of the Cheng-Prusoff equation (Cheng, Prusoff; Biochem. Pharmacol. 22, 3099-3108, 1973).

Chain of rat-species vanilloid receptor 1 (VR1/TRPV1) (O35433 whole entry): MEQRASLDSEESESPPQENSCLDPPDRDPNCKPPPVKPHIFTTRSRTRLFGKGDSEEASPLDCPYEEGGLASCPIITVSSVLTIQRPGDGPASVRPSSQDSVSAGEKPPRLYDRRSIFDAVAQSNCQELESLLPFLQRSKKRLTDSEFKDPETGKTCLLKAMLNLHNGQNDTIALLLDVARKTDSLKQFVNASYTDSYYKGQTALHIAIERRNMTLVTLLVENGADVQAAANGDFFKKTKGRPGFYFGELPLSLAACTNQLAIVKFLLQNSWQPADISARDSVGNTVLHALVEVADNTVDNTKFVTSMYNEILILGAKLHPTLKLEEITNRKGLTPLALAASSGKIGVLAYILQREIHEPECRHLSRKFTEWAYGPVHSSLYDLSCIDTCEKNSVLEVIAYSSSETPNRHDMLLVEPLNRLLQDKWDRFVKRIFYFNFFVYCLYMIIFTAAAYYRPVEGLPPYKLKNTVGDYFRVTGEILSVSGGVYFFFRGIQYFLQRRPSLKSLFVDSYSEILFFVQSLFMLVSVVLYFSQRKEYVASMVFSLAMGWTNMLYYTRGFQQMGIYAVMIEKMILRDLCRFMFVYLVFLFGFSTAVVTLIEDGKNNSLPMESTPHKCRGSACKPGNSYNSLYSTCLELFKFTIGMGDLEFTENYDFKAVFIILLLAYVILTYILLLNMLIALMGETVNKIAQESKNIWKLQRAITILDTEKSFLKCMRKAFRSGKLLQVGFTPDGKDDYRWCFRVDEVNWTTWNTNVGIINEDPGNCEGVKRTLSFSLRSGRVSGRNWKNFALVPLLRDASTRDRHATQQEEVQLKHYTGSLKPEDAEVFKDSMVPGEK

Take `C[C@H](C(=O)NCc1cc(C(C)(C)C)nn1C)c1ccc(NS(C)(=O)=O)c(F)c1` [Example 4, (S)-N-((3-tert-butyl-1-methyl-1H-pyrazol-5-yl)methyl)-2-(3-fluoro-4-(methylsulphonamido)phenyl)propanamide]: the inhibition (usually the relative decrease from the control value, in per cent) at 5 µM was 20% in assay [1] (read-out: Ki (rat) Cap: inhibition (as a percentage) @ 5 μM, capsaicin, inhibition determined at 5 μM) and 9% on hVR1 [2] (CHO-K1, read-out: Ki (human being) Cap column: inhibition (as a percentage) @ 5 μM, capsaicin, inhibition determined at 5 μM). Also, the “IC50 (human being) hVR1 pH: result in words (NE / AG)” value (“IC50 … (NE / AG)” below) on hVR1 [3] was “NE”.

On to `CCCCCCn1nc(C(C)(C)C)cc1CNC(=O)[C@@H](C)c1ccc(NS(C)(=O)=O)c(F)c1` [Example 6, (S)-N-((3-tert-butyl-1-hexyl-1H-pyrazol-5-yl)methyl)-2-(3-fluoro-4-(methylsulphonamido)phenyl)propanamide], for which the Ki (usually a dissociation constant, usually derived from enzyme kinetics or from competition with a known ligand) was determined as 14.5 nM in assay [1] and 27.7 nM at hVR1 [2]. The inhibition at 10 µM on hVR1 [3] was determined as 13%.

On to `CC(C(=O)NCc1cc(C(C)(C)C)nn1C1CCCCC1)c1ccc(NS(C)(=O)=O)c(F)c1` (stereo not drawn) [Example 7, N-((3-tert-butyl-1-cyclohexyl-1H-pyrazol-5-yl)methyl)-2-(3-fluoro-4-(methylsulphonamido)phenyl)propanamide], for which the Ki in assay [1] was 0.35 nM; on hVR1 [2], 21.6 nM. The “IC50 … (NE / AG)” value on hVR1 [3] was “NE”.

Take `CC(C(=O)NCc1cc(C(C)(C)C)nn1-c1ccc(Cl)cc1)c1ccc(NS(C)(=O)=O)c(F)c1` (stereo not drawn) [Example 14, N-((3-tert-butyl-1-(4-chlorophenyl)-1H-pyrazol-5-yl)methyl)-2-(3-fluoro-4-(methylsulphonamido)phenyl)propanamide]: the Ki in assay [1] was 7.2 nM; at hVR1 [2] it was 3.7 nM. Further, the inhibition at 10 µM at hVR1 [3] amounted to 25%.

`C[C@H](C(=O)NCc1cc(C(C)(C)C)nn1-c1ccc(Cl)cc1)c1ccc(NS(C)(=O)=O)c(F)c1` [Example 15, (S)-N-((3-tert-butyl-1-(4-chlorophenyl)-1H-pyrazol-5-yl)methyl)-2-(3-fluoro-4-(methylsulphonamido)phenyl)propanamide]: the Ki in assay [1] amounted to 2.5 nM; at hVR1 [2] it was 2.1 nM. The inhibition at 5 µM at hVR1 [3] (read-out: IC50 (human being) hVR1 pH column: inhibition (as a percentage) @ 5 μM, inhibition determined at 5 μM) was 14%.

In assay [1], `Cc1ccc(/C=C/n2nc(C(C)(C)C)cc2CNC(=O)C(C)c2ccc(NS(C)(=O)=O)c(F)c2)cc1` (stereo not drawn) [Example 19, (E)-N-((3-tert-butyl-1-(4-methylstyryl)-1H-pyrazol-5-yl)methyl)-2-(3-fluoro-4-(methylsulphonamido)phenyl)propanamide] gave a Ki of 819 nM. Besides, the inhibition at 1 µM on hVR1 [2] was determined as 44%. The “IC50 … (NE / AG)” value at hVR1 [3] was “NE”.

`COc1ccc(-n2nc(C(C)(C)C)cc2CNC(=O)C(C)c2ccc(NS(C)(=O)=O)c(F)c2)cc1` (stereo not drawn) [Example 20, N-((3-tert-butyl-1-(4-methoxyphenyl)-1H-pyrazol-5-yl)methyl)-2-(3-fluoro-4-(methylsulphonamido)phenyl)propanamide] came in with a Ki in assay [1] of 2830 nM. Moreover, the inhibition at 1 µM on hVR1 [2] amounted to 55%. The “IC50 … (NE / AG)” value at hVR1 [3] is reported as “NE”.

As for `C[C@@H](C(=O)NCc1cc(C(F)(F)F)nn1-c1ccc(Cl)cc1)c1ccc(NS(C)(=O)=O)c(F)c1` [Example 22, (R)-N-((1-(4-chlorophenyl)-3-(trifluoromethyl)-1H-pyrazol-5-yl)methyl)-2-(3-fluoro-4-(methylsulphonamido)phenyl)propanamide], the inhibition constant Ki is 42.7 nM in assay [1] and 31.7 nM on hVR1 [2]. The inhibition at 10 µM at hVR1 [3] was 42%.

Take `COc1cc(C(C)C(=O)NCc2cc(C(C)(C)C)nn2-c2cccc(Cl)c2)ccc1NS(C)(=O)=O` (stereo not drawn) [Example 27, N-((3-tert-butyl-1-(3-chlorophenyl)-1H-pyrazol-5-yl)methyl)-2-(3-methoxy-4-(methylsulphonamido)phenyl)propanamide]: the Ki is 1.2 nM in assay [1] and 2.2 nM on hVR1 [2]. For the same compound, on hVR1 [3], the “IC50 … (NE / AG)” value is “NE”.
